Publication PMC12430708, “Design, Synthesis, and In Vitro and In Silico Study of New Hybrid 1-(2-(4-Arylthiazol-2-yl)hydrazineylidene)-5,6-dihydro-4H-pyrrolo[3,2,1-ij]quinolin-2-ones as Factor Xa and Factor XIa Inhibitors” (Molecules, 2025)

Experiments:
Format in all cases: biochemical
factor XIa = factor XIa (Homo sapiens, UniProt P03951); test: Inhibition of factor XIa, hydrolysis kinetics of chromogenic substrate S2366; details: for Percent Inhibition at 30 μM ± SEM (n = 3), XIa / inhibition at 30 µM: 30 μM compound, factor XIa 5 nmol/L, S2366 200 µmol/L, negative values denote percent activation; for inhibition at 30 µM: read-out: Percent Inhibition at 30 μM ± SEM (n = 3), XIa; for IC50: substrate S2366, buffer solution, read-out: IC50, μM ± SEM (n = 3), XIa
Sequence of factor XIa (P03951 388-625 limits assumed): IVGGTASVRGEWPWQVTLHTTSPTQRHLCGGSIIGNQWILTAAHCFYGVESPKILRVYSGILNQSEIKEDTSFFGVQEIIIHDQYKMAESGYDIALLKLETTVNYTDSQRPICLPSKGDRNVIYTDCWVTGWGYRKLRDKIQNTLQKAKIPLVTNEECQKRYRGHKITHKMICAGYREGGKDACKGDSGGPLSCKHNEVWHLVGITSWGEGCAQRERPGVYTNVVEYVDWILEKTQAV
Sequence of factor XIa (P03951 19-387 partner limits assumed): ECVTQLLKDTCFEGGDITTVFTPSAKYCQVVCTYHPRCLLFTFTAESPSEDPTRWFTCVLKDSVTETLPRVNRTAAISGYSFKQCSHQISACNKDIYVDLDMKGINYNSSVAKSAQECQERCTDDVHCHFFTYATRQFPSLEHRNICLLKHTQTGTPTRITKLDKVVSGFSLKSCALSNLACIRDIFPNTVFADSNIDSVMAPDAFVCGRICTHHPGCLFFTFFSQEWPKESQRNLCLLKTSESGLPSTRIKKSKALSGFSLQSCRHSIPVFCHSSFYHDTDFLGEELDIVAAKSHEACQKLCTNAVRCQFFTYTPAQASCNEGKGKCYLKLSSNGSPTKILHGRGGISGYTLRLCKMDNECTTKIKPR
From the text: (§1) The inhibition of the blood coagulation factors Xa and XIa or plasmin by the synthesized compounds 5a–o was studied by measuring the kinetics of hydrolysis of substrates specific for each of these enzymes in the presence of the compounds. A specific low-molecular-weight chromogenic substrate S2765 (Z-D-Arg-Gly-Arg-pNA·2HCl) was used in the case of factor Xa, substrate S2366 (pyroGlu-Pro-Arg-pNA·HCl) was used for factor XIa, and S2288 (H-D-Ile-Pro-Arg-pNA·2HCl) was used for plasmin (all from Chromogenix, West Chester, PA, USA). A buffer containing 140 mM NaCl, 20 mM HEPES, and 0.1% PEG 6000 (pH 8.0) was placed in the wells of a 96-well plate, followed by the addition of factor Xa or XIa (final concentration 5 nmol·L^−1) or plasmin (final concentration 10 nmol L^−1); the substrate S2765, S2366, or S2288 (final concentration 200 µmol·L^−1); and a solution of the test compound in DMSO (final concentration 30 µmol·L^−1, the DMSO content in the well was no more than 2%). The kinetics of the formation of p-nitroaniline was measured using an Eppendorf PlateReader AF2200 microplate reader (Eppendorf, Hamburg, Germany) by the absorption of light with a wavelength of 405 nm. The initial rate of substrate degradation was determined from the initial slope of the 4-nitroaniline formation curve.
(§2) The absolute value of negative inhibition values denotes percent activation.
(§3) The data obtained were processed using the GraphPad Prism 8.0.1 (244) and OriginPro 8 software.

factor Xa = factor Xa (Homo sapiens, UniProt P00742); test: Inhibition of factor Xa, hydrolysis kinetics of chromogenic substrate S2765; details: for Percent Inhibition at 30 μM ± SEM (n = 3), Xa / inhibition at 30 µM: 30 μM compound, factor Xa 5 nmol/L, S2765 200 µmol/L, negative values denote percent activation; for inhibition at 30 µM: read-out: Percent Inhibition at 30 μM ± SEM (n = 3), Xa; for IC50: substrate S2765, buffer solution, read-out: IC50, μM ± SEM (n = 3), Xa
Sequence of factor Xa (P00742 235-488 limits assumed): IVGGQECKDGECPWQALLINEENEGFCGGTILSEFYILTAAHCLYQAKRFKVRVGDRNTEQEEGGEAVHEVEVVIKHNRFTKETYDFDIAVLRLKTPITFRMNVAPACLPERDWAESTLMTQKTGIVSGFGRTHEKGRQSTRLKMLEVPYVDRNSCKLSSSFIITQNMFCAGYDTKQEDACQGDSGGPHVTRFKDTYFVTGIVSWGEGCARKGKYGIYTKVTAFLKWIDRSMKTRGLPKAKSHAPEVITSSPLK
Sequence of factor Xa (P00742 41-179 partner limits assumed): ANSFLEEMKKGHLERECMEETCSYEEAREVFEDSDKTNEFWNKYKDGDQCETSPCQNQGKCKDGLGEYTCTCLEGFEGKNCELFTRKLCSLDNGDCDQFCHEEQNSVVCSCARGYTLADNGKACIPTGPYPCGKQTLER
From the text: as §1, §2, §3

plasmin = plasmin (Homo sapiens, UniProt P00747); test: Inhibition of plasmin, hydrolysis kinetics of chromogenic substrate S2288 (selectivity); details: 30 μM compound, plasmin 10 nmol/L, S2288 200 µmol/L; for inhibition at 30 µM: read-out: Percent Inhibition at 30 μM ± SEM (n = 3), Plasmin
Sequence of plasmin (P00747 581-810 limits assumed, species assumed): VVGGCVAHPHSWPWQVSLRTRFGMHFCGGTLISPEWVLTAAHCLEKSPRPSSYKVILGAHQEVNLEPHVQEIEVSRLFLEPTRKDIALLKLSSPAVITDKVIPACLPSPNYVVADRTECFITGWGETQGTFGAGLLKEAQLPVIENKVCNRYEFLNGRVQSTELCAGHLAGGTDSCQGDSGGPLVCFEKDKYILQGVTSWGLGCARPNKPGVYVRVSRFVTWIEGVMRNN
Sequence of plasmin (P00747 97-580 partner limits assumed, species assumed): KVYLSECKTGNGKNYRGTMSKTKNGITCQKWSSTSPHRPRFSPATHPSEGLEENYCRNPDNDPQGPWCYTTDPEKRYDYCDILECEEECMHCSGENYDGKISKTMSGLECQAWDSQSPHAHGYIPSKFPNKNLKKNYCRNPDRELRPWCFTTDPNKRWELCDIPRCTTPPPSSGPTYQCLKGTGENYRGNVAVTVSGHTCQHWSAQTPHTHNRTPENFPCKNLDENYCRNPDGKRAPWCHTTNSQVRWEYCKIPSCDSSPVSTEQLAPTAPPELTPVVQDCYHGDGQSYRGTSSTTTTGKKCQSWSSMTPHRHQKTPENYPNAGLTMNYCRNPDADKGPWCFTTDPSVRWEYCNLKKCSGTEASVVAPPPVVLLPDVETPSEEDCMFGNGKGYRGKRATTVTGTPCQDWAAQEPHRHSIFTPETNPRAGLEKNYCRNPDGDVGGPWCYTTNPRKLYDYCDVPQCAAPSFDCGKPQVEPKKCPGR
From the text: as §1, §2, §3

Row | Compound | Percent Inhibition at 30 μM ± SEM (n = 3), XIa (factor XIa) [%] | inhibition at 30 µM (factor XIa) [%] | IC50 (factor XIa) [µM] | Percent Inhibition at 30 μM ± SEM (n = 3), Xa (factor Xa) [%] | inhibition at 30 µM (factor Xa) [%] | IC50 (factor Xa) [µM] | Percent Inhibition at 30 μM ± SEM (n = 3), Plasmin (plasmin) [%] | inhibition at 30 µM (plasmin) [%]
1 | CC1(c2ccccc2)CC(C)(C)N2C(=O)/C(=N\Nc3nc(-c4ccc(Cl)cc4)cs3)c3cc(Br)cc1c32 (stereo not drawn) [5h, (Z)-8-Bromo-1-(2-(4-(4-chlorophenyl)thiazol-2-yl)hydrazineylidene)-4,4,6-trimethyl-6-phenyl-5,6-dihydro-4H-pyrrolo[3,2,1-ij]quinolin-2(1H)-one] | 100 | 98 to 100 | 7.66 ± 0.08 | 99 ± 1 | 98 to 100 | 5.75 ± 0.02 | 8 ± 2 | < 10
2 | CC1(c2ccc(Cl)cc2)CC(C)(C)N2C(=O)/C(=N\Nc3nc(-c4ccccc4)cs3)c3cc(Br)cc1c32 (stereo not drawn) [5o, (Z)-8-Bromo-6-(4-chlorophenyl)-4,4,6-trimethyl-1-(2-(4-phenylthiazol-2-yl)hydrazineylidene)-5,6-dihydro-4H-pyrrolo[3,2,1-ij]quinolin-2(1H)-one] |  | -11 ± 12 |  |  | -4 ± 6 |  |  | 
3 | COc1cccc(-c2csc(N/N=C3\C(=O)N4c5c3cc(F)cc5C(C)(c3ccc(Cl)cc3)CC4(C)C)n2)c1 (stereo not drawn) [5n, (Z)-6-(4-Chlorophenyl)-8-fluoro-1-(2-(4-(3-methoxyphenyl)thiazol-2-yl)hydrazineylidene)-4,4,6-trimethyl-5,6-dihydro-4H-pyrrolo[3,2,1-ij]quinolin-2(1H)-one] |  | -19 ± 8 |  |  | -2 ± 3 |  |  | 
4 | CC1(c2ccc(Cl)cc2)CC(C)(C)N2C(=O)/C(=N\Nc3nc(-c4ccc(F)cc4)cs3)c3cc(F)cc1c32 (stereo not drawn) [5l, (Z)-6-(4-Chlorophenyl)-8-fluoro-1-(2-(4-(4-fluorophenyl)thiazol-2-yl)hydrazineylidene)-4,4,6-trimethyl-5,6-dihydro-4H-pyrrolo[3,2,1-ij]quinolin-2(1H)-one] |  | -11 ± 7 |  |  | -4 ± 3 |  |  | 
5 | CC1(c2ccc(Cl)cc2)CC(C)(C)N2C(=O)/C(=N\Nc3nc(-c4ccc(Cl)cc4)cs3)c3cc(F)cc1c32 (stereo not drawn) [5k, (Z)-6-(4-Chlorophenyl)-1-(2-(4-(4-chlorophenyl)thiazol-2-yl)hydrazineylidene)-8-fluoro-4,4,6-trimethyl-5,6-dihydro-4H-pyrrolo[3,2,1-ij]quinolin-2(1H)-one] |  | 37 ± 8 |  |  | -12 ± 11 |  |  | 
6 | CC1(c2ccccc2)CC(C)(C)N2C(=O)/C(=N\Nc3nc(-c4ccc(Cl)cc4)cs3)c3cc(F)cc1c32 (stereo not drawn) [5g, (Z)-1-(2-(4-(4-Chlorophenyl)thiazol-2-yl)hydrazineylidene)-8-fluoro-4,4,6-trimethyl-6-phenyl-5,6-dihydro-4H-pyrrolo[3,2,1-ij]quinolin-2(1H)-one] |  | 76 ± 3 |  |  | 51 ± 18 |  |  | 
7 | CC1(c2ccc(Cl)cc2)CC(C)(C)N2C(=O)/C(=N\Nc3nc(-c4cccc(Cl)c4)cs3)c3cc(F)cc1c32 (stereo not drawn) [5m, (Z)-6-(4-Chlorophenyl)-1-(2-(4-(3-chlorophenyl)thiazol-2-yl)hydrazineylidene)-8-fluoro-4,4,6-trimethyl-5,6-dihydro-4H-pyrrolo[3,2,1-ij]quinolin-2(1H)-one] |  | -14 ± 7 |  |  | -17 ± 11 |  |  | 

The remaining lines, values ahead:

Row | Percent Inhibition at 30 μM ± SEM (n = 3), XIa (factor XIa) [%] | inhibition at 30 µM (factor XIa) [%] | IC50 (factor XIa) [µM] | Percent Inhibition at 30 μM ± SEM (n = 3), Xa (factor Xa) [%] | inhibition at 30 µM (factor Xa) [%] | IC50 (factor Xa) [µM] | Percent Inhibition at 30 μM ± SEM (n = 3), Plasmin (plasmin) [%] | inhibition at 30 µM (plasmin) [%] | Compound
8 | 99 | 98 to 100 | 7.7 ± 0.05 | 98 ± 1 | 98 to 100 | 5.43 ± 0.02 | 5 ± 1 | < 10 | CC1CC(C)(C)N2C(=O)/C(=N\Nc3nc(-c4ccc(F)cc4)cs3)c3cc(Cl)cc1c32 (stereo not drawn) [5d, (Z)-8-Chloro-1-(2-(4-(4-fluorophenyl)thiazol-2-yl)hydrazineylidene)-4,4,6-trimethyl-5,6-dihydro-4H-pyrrolo[3,2,1-ij]quinolin-2(1H)-one]
9 |  | -11 ± 9 |  |  | -25 ± 9 |  |  |  | COc1cccc(-c2csc(N/N=C3\C(=O)N4c5c3cc(F)cc5C(C)CC4(C)C)n2)c1 (stereo not drawn) [5f, (Z)-8-Fluoro-1-(2-(4-(3-methoxyphenyl)thiazol-2-yl)hydrazineylidene)-4,4,6-trimethyl-5,6-dihydro-4H-pyrrolo[3,2,1-ij]quinolin-2(1H)-one]
10 |  | -3 ± 6 |  |  | -3 ± 3 |  |  |  | COc1ccc(-c2csc(N/N=C3\C(=O)N4c5c3cc(Cl)cc5C(C)(c3ccc(Cl)cc3)CC4(C)C)n2)cc1 (stereo not drawn) [5j, (Z)-8-Chloro-6-(4-chlorophenyl)-1-(2-(4-(4-methoxyphenyl)thiazol-2-yl)hydrazineylidene)-4,4,6-trimethyl-5,6-dihydro-4H-pyrrolo[3,2,1-ij]quinolin-2(1H)-one]
11 |  | -13 ± 11 |  |  | -30 ± 7 |  |  |  | COc1cc2c3c(c1)C(C)CC(C)(C)N3C(=O)/C2=N\Nc1nc(-c2ccc(Cl)cc2)cs1 (stereo not drawn) [5a, (Z)-1-(2-(4-(4-Chlorophenyl)thiazol-2-yl)hydrazineylidene)-8-methoxy-4,4,6-trimethyl-5,6-dihydro-4H-pyrrolo[3,2,1-ij]quinolin-2(1H)-one]
12 |  | -14 ± 10 |  |  | -21 ± 9 |  |  |  | COc1ccc(-c2csc(N/N=C3\C(=O)N4c5c3cccc5C(C)(c3ccc(Cl)cc3)CC4(C)C)n2)cc1 (stereo not drawn) [5i, (Z)-6-(4-Chlorophenyl)-1-(2-(4-(4-methoxyphenyl)thiazol-2-yl)hydrazineylidene)-4,4,6-trimethyl-5,6-dihydro-4H-pyrrolo[3,2,1-ij]quinolin-2(1H)-one]
13 |  | -2 ± 11 |  |  | -8 ± 10 |  |  |  | COc1ccc(-c2csc(N/N=C3\C(=O)N4c5c3cc(Cl)cc5C(C)CC4(C)C)n2)cc1 (stereo not drawn) [5e, (Z)-8-Chloro-1-(2-(4-(4-methoxyphenyl)thiazol-2-yl)hydrazineylidene)-4,4,6-trimethyl-5,6-dihydro-4H-pyrrolo[3,2,1-ij]quinolin-2(1H)-one]
14 |  | -6 ± 10 |  |  | -30 ± 10 |  |  |  | COc1cc2c3c(c1)C(C)CC(C)(C)N3C(=O)/C2=N\Nc1nc(-c2ccc(F)cc2)cs1 (stereo not drawn) [5b, (Z)-1-(2-(4-(4-Fluorophenyl)thiazol-2-yl)hydrazineylidene)-8-methoxy-4,4,6-trimethyl-5,6-dihydro-4H-pyrrolo[3,2,1-ij]quinolin-2(1H)-one]
15 |  | -7 ± 8 |  |  | -40 ± 10 |  |  |  | COc1cc2c3c(c1)C(C)CC(C)(C)N3C(=O)/C2=N\Nc1nc(-c2ccc(Br)cc2)cs1 (stereo not drawn) [5c, (Z)-1-(2-(4-(4-Bromophenyl)thiazol-2-yl)hydrazineylidene)-8-methoxy-4,4,6-trimethyl-5,6-dihydro-4H-pyrrolo[3,2,1-ij]quinolin-2(1H)-one]
